Structures are written as SMILES. ± gives the uncertainty stated by the source.

The nature of this data set: xn = mol fraction of the nth substance listed.

Turning to `CCCCCCCCCC[n+]1ccn(C)c1.[Br-]` + CCCCCCCCn1cc[n+](C)c1.[Br-] + O, the electrical conductivity was determined as 0.7 ± 0.02 S/m (298.15 K, 101 kPa, x2 = 0.001457, x1 = 0.0002702); 1.01 ± 0.02 S/m (298.15 K, 101 kPa, x2 = 0.002534, x1 = 0.0004683); 1.2 ± 0.02 S/m (298.15 K, 101 kPa, x2 = 0.003323, x1 = 0.0006123); 1.33 ± 0.03 S/m (298.15 K, 101 kPa, x2 = 0.003985, x1 = 0.0007203); 1.45 ± 0.03 S/m (298.15 K, 101 kPa, x2 = 0.00477, x1 = 0.0008642); 1.55 ± 0.03 S/m (298.15 K, 101 kPa, x2 = 0.005466, x1 = 0.0009901).
What is called viscosity is the internal friction of a fluid under shear. Low values mean a thin fluid, high ones a thick fluid. As to `CN1CCCC1=O` + CCCCCCCCn1cc[n+](C)c1.[Cl-], the viscosity was 1.853 ± 0.076 mPa·s (293.15 K, 100 kPa, x1 = 1) and 1.259 ± 0.052 mPa·s (318.15 K, 100 kPa, x1 = 1).
`CCCC[n+]1ccn(C)c1.O=S(=O)([N-]S(=O)(=O)C(F)(F)F)C(F)(F)F` + CCCCCCCO yielded a viscosity (298 K, 100 kPa, x1 = 1) of 49.7 ± 1.3 mPa·s.
As to `CCCC[n+]1ccn(C)c1.O=S(=O)([N-]S(=O)(=O)C(F)(F)F)C(F)(F)F` + CCCCCCO, the viscosity (298 K, 100 kPa, x1 = 1) is recorded as 49.7 ± 1.3 mPa·s.
Turning to `CC#N` + CCCCCC[P+](CCCC)(CCCC)CCCC.F[B-](F)(F)F, the viscosity reads like this: (293.15 K, 100 kPa, x2 = 0) 0.354 ± 0.021 mPa·s; (298.15 K, 100 kPa, x2 = 0) 0.338 ± 0.02 mPa·s; (303.15 K, 100 kPa, x2 = 0) 0.324 ± 0.02 mPa·s; (308.15 K, 100 kPa, x2 = 0) 0.31 ± 0.019 mPa·s; (313.15 K, 100 kPa, x2 = 0) 0.298 ± 0.018 mPa·s; (318.15 K, 100 kPa, x2 = 0) 0.286 ± 0.017 mPa·s.
In turn, `CN1CCCC1=O` + CCCCCC[n+]1ccn(C)c1.N#C[S-] registered a viscosity (288.15 K, 101 kPa, x2 = 0) of 2.133 ± 0.023 mPa·s; a viscosity (298.15 K, 101 kPa, x2 = 0) of 1.791 ± 0.02 mPa·s; a viscosity (308.15 K, 101 kPa, x2 = 0) of 1.548 ± 0.018 mPa·s; a viscosity (318.15 K, 101 kPa, x2 = 0) of 1.312 ± 0.017 mPa·s.
Compound `COCCOCCOCCOCCOC` + CCCCCC[n+]1ccn(C)c1.O=S(=O)([N-]S(=O)(=O)C(F)(F)F)C(F)(F)F had a viscosity (288.15 K, 100 kPa, x1 = 0.099) of 96 ± 2 mPa·s.
As to `CCCCCC[n+]1ccn(C)c1.F[P-](F)(F)(F)(F)F` + CCCCCC[n+]1ccn(C)c1.[Cl-], the electrical conductivity reads like this: (303 K, 101 kPa, x2 = 0.6) 0.0103 ± 0.00084 S/m; (303 K, 101 kPa, x2 = 0.8) 0.00536 ± 0.00045 S/m; (308 K, 101 kPa, x2 = 0.4) 0.0299 ± 0.0024 S/m; (308 K, 101 kPa, x2 = 0.8) 0.00862 ± 0.00071 S/m; (313 K, 101 kPa, x2 = 0) 0.13 ± 0.01 S/m; (313 K, 101 kPa, x2 = 0.4) 0.0424 ± 0.0034 S/m. The electrical conductivity was determined as 0.0337 ± 0.0027 S/m (318 K, 101 kPa, x2 = 0.6); 0.26 ± 0.021 S/m (328 K, 101 kPa, x2 = 0); 0.0419 ± 0.0034 S/m (328 K, 101 kPa, x2 = 0.8). Besides, the viscosity (303.15 K, 101 kPa, x2 = 0.2) was 960 ± 300 mPa·s; the viscosity (303.15 K, 101 kPa, x2 = 0.4) was 1853 ± 590 mPa·s; the viscosity (308.15 K, 101 kPa, x2 = 0) is 360 ± 110 mPa·s; the viscosity (318.15 K, 101 kPa, x2 = 0.4) stood at 600 ± 190 mPa·s; the viscosity (323.15 K, 101 kPa, x2 = 0.6) is on record as 710 ± 220 mPa·s; the viscosity (328.15 K, 101 kPa, x2 = 0.2) was 205 ± 62 mPa·s.
With `CN(C)C=O` + CCCCCC[n+]1ccn(C)c1.[Cl-], the viscosity reads like this: (288.15 K, 101 kPa, x1 = 1) 0.94 ± 0.22 mPa·s; (298.15 K, 101 kPa, x1 = 1) 0.82 ± 0.21 mPa·s.
The compound `CCCC[n+]1ccn(C)c1.O=S(=O)([N-]S(=O)(=O)C(F)(F)F)C(F)(F)F` + CCCCCO came in with a viscosity (298 K, 100 kPa, x1 = 1) of 49.7 ± 1.3 mPa·s.
As for `CCCCC[P+](CC)(CC)CC.O=S(=O)([N-]S(=O)(=O)C(F)(F)F)C(F)(F)F` + CCCCC[N+](CC)(CC)CC.O=S(=O)([N-]S(=O)(=O)C(F)(F)F)C(F)(F)F, the viscosity by setting is: (283.15 K, 101.3 kPa, x2 = 0) 203 ± 41 mPa·s; (323.15 K, 101.3 kPa, x2 = 0) 30.5 ± 6.1 mPa·s.
On to `CCCC[n+]1ccn(C)c1.O=S(=O)([N-]S(=O)(=O)C(F)(F)F)C(F)(F)F` + CCCCO, for which the viscosity runs as follows: (298 K, 100 kPa, x1 = 0.05) 3.52 ± 0.026 mPa·s; (298 K, 100 kPa, x1 = 0.1) 4.728 ± 0.042 mPa·s; (298 K, 100 kPa, x1 = 0.1998) 6.745 ± 0.067 mPa·s; (298 K, 100 kPa, x1 = 0.2996) 8.98 ± 0.11 mPa·s; (298 K, 100 kPa, x1 = 0.399) 11.9 ± 0.16 mPa·s; (298 K, 100 kPa, x1 = 0.4991) 15.1 ± 0.24 mPa·s. For the same compound, the viscosity is, setting by setting: (298 K, 100 kPa, x1 = 0.5995) 19.41 ± 0.34 mPa·s; (298 K, 100 kPa, x1 = 0.6984) 24.48 ± 0.48 mPa·s; (298 K, 100 kPa, x1 = 0.7971) 31.76 ± 0.69 mPa·s; (298 K, 100 kPa, x1 = 0.9005) 39.89 ± 0.95 mPa·s; (298 K, 100 kPa, x1 = 1) 49.7 ± 1.3 mPa·s; (298 K, 101 kPa, x2 = 0) 50.4 ± 1.9 mPa·s. Further, the electrical conductivity reads like this: (298 K, 101 kPa, x2 = 0.2936) 0.561 ± 0.064 S/m; (298 K, 101 kPa, x2 = 0.317) 0.613 ± 0.064 S/m; (298 K, 101 kPa, x2 = 0.5053) 0.668 ± 0.064 S/m; (298 K, 101 kPa, x2 = 0.6833) 0.653 ± 0.064 S/m; (298 K, 101 kPa, x2 = 0.8349) 0.418 ± 0.064 S/m; (298 K, 101 kPa, x2 = 0.8623) 0.368 ± 0.064 S/m.
Where the note is “298.15 K, 100 kPa, x2 = 0”, `CCCC[n+]1ccn(C)c1.O=S(=O)([N-]S(=O)(=O)C(F)(F)F)C(F)(F)F` + CCCCOC(C)=O came in with an electrical conductivity of 0.39 ± 0.01 S/m and a viscosity of 50.2 ± 2.3 mPa·s.

Values taken from the CheMixHub ionic liquid set.
